Assay results: the supplement of paper PMC11061612

Experiments:
[1] = test system: OE21 (Esophageal Squamous Cell Carcinoma); assay: Bliss excess, mean over the matrix (fraction); higher = more synergy
Method in brief: (§1)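 Cell lines in DMEM/F12 or RPMI with 10% FBS were plated in 1536-well plates, held 24 hours at 37°C, 5% CO2, then given two-drug dose matrices for 72 hours (DMSO typically 0.2%). Viability was read by CellTiter-Glo 2.0 luminescence and scaled as inhibition from 0 (vehicle wells) to 1 (blank wells). Combination Emax is the second-highest inhibition in the matrix; Bliss excess is observed combination effect minus expected EA + EB − EA·EB, EA and EB being single-agent effects.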

[2] = test system: NCI-H524 (Small Cell Lung Carcinoma); assay: as above
Method in brief: as §1

[3] = test system: SAS (Oral Cavity Carcinoma); assay: as above
Method in brief: as §1

[4] = test system: BFTC-909 (Kidney Carcinoma); assay: as above
Method in brief: as §1

[5] = test system: HuCCT1 (Biliary Tract Carcinoma); assay: as above
Method in brief: as §1

[6] = test system: NUGC-4 (Gastric Carcinoma); assay: combination Emax (second highest fraction inhibited in the dose matrix, 72 h); higher = more inhibition; extreme values may be limits of the assay
Method in brief: as §1

[7] = test system: OVCAR-5 (Ovarian Carcinoma); assay: as above
Method in brief: as §1

[8] = test system: MHH-CALL-2 (B-Lymphoblastic Leukemia); assay: as above
Method in brief: as §1

[9] = test system: KMRC-20 (Kidney Carcinoma); assay: as above
Method in brief: as §1

A673 (Ewing's Sarcoma) = assay: as above
Method in brief: as §1

[10] = test system: KYAE-1 (Esophageal Adenocarcinoma); assay: as above
Method in brief: as §1

[11] = test system: NCI-H1568 (Lung Adenocarcinoma); assay: as above
Method in brief: as §1

[12] = test system: LS-123 (Colorectal Carcinoma); assay: as above
Method in brief: as §1

[13] = test system: HuCCT1 (Biliary Tract Carcinoma); assay: as above
Method in brief: as §1

[14] = test system: BE-13 (T-Lymphoblastic Leukemia); assay: as above
Method in brief: as §1

[15] = test system: NCI-H209 (Small Cell Lung Carcinoma); assay: as above
Method in brief: as §1

[16] = test system: ALL-PO (B-Lymphoblastic Leukemia); assay: as above
Method in brief: as §1

LOXIMVI (Melanoma) = assay: as above
Method in brief: as §1

[17] = test system: HuH-7 (Hepatocellular Carcinoma); assay: as above
Method in brief: as §1

[18] = test system: L-428 (Hodgkin's Lymphoma); assay: as above
Method in brief: as §1
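Wherever Bliss excess, mean over the matrix is given: after 72 h of two-drug dosing.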

SMILES | Bliss excess [1] | Bliss excess [2] | Bliss excess [3] | Bliss excess [4] | Bliss excess [5] | combination Emax [6] | combination Emax [7] | combination Emax [8] | combination Emax [9] | combination Emax (A673 (Ewing's Sarcoma)) | combination Emax [10] | combination Emax [11] | combination Emax [12] | combination Emax [13] | combination Emax [14] | combination Emax [15] | combination Emax [16] | combination Emax (LOXIMVI (Melanoma)) | combination Emax [17] | combination Emax [18]
Cc1c2c(nn1C)CSCc1cc(n(C)n1)CSc1cc(c3ccccc3c1)OCCCc1c(C(=O)O)n(C)c3c-2c(Cl)ccc13 [AZD5991] + CC1(C)CCC(CN2CCN(c3ccc(C(=O)NS(=O)(=O)c4ccc(NCC5CCOCC5)c([N+](=O)[O-])c4)c(Oc4cnc5[nH]ccc5c4)c3)CC2)=C(c2ccc(Cl)cc2)C1 [Venetoclax] (first compound max 1 µM, 7x7, partner max 1 µM) | 0.0182 | 0.0725 | 0.0098 | -0.0001 | -0.0557 | 0.178 | 0.159 | 0.983 | 0.162 | 0.868 | 0.225 | 0.248 | 0.142 | 0.203 | 0.916 | 0.996 | 1 | 0.229 | 0.306 | 0.158
Cc1c2c(nn1C)CSCc1cc(n(C)n1)CSc1cc(c3ccccc3c1)OCCCc1c(C(=O)O)n(C)c3c-2c(Cl)ccc13 [AZD5991] + C[C@@H](Nc1cc(F)cc(F)c1)c1cc(C(=O)N(C)C)cc2c(=O)cc(N3CCOCC3)oc12 [AZD8186] (first compound max 1 µM, 7x7, partner max 3 µM) | 0.0258 | -0.0289 | 0.0062 | 0.0188 | 0.021 | 0.374 | 0.267 | 0.989 | 0.262 | 0.557 | 0.209 | 0.225 | 0.336 | 0.4 | 0.384 | 0.384 | 1 | 0.268 | 0.208 | 0.12
CC1(C)CCC(CN2CCN(c3ccc(C(=O)NS(=O)(=O)c4ccc(NCC5CCOCC5)c([N+](=O)[O-])c4)c(Oc4cnc5[nH]ccc5c4)c3)CC2)=C(c2ccc(Cl)cc2)C1 [Venetoclax] + CCN(CCO)CCCOc1ccc2c(Nc3cc(CC(=O)Nc4cccc(F)c4)[nH]n3)ncnc2c1 [AZD2811] (first compound max 1 µM, 7x7, partner max 1 µM) | 0.0005 | -0.0074 | 0.009 | -0.0289 | -0.0062 | 0.166 | 0.315 | 0.292 | 0.2 | 0.861 | 0.163 | 0.209 | 0.162 | 0.217 | 0.881 | 0.974 | 1 | 0.21 | 0.194 | 0.296
CC1(C)CCC(CN2CCN(c3ccc(C(=O)NS(=O)(=O)c4ccc(NCC5CCOCC5)c([N+](=O)[O-])c4)c(Oc4cnc5[nH]ccc5c4)c3)CC2)=C(c2ccc(Cl)cc2)C1 [Venetoclax] + COc1cc(Nc2ncc3c(n2)-c2ccc(Cl)cc2C(c2c(F)cccc2OC)=NC3)ccc1C(=O)O [Alisertib] (first compound max 1 µM, 7x7, partner max 10 µM) | 0.0433 | -0.0902 | -0.0842 | 0.0116 | -0.0148 | 0.166 | 0.335 | 0.733 | 0.654 | 0.835 | 0.128 | 0.259 | 0.385 | 0.365 | 0.918 | 0.891 | 1 | 0.5 | 0.791 | 0.363
Cn1cnc2c(F)c(Nc3ccc(Br)cc3Cl)c(C(=O)NOCCO)cc21 [Selumetinib] + C[C@@H]1COCCN1C2=NC(=NC(=C2)C3(CC3)[S@](=N)(=O)C)C4=C5C=CNC5=NC=C4 [AZD6738] (first compound max 10 µM, 7x7, partner max 10 µM) | 0.0134 | -0.0293 | -0.012 | -0.025 | -0.0164 | 0.607 | 0.671 | 0.951 | 0.441 | 0.648 | 0.0615 | 0.574 | 0.517 | 0.703 | 0.784 | 0.878 | 0.96 | 0.778 | 0.374 | 0.69
CC1(C)CCC(CN2CCN(c3ccc(C(=O)NS(=O)(=O)c4ccc(NCC5CCOCC5)c([N+](=O)[O-])c4)c(Oc4cnc5[nH]ccc5c4)c3)CC2)=C(c2ccc(Cl)cc2)C1 [Venetoclax] + Cn1cnc2c(F)c(Nc3ccc(Br)cc3Cl)c(C(=O)NOCCO)cc21 [Selumetinib] (first compound max 1 µM, 7x7, partner max 3 µM) | 0.0044 | -0.0392 | -0.0533 | -0.0315 | -0.0128 | 0.499 | 0.572 | 0.482 | 0.217 | 0.65 | 0.0726 | 0.0499 | 0.374 | 0.38 | 0.461 | 0.436 | 0.538 | 0.571 | 0.122 | 0.137
